Values quoted from earlier work as cited in patent US20240189233A1, “POWDERY PREPARATION AND METHOD FOR MANUFACTURING SAME” (ICHIMARU PHARCOS CO., LTD., priority 2021, published 2024).

Tested on: human breast cancer cells
Conditions: Cheng W L et al. (2011)

In the case of C=C[C@H](O)C#CC#C[C@H](O)/C=C\CC/C=C\C [araliadiol], the growth inhibitory activity is listed as “growth inhibitory activity”.
